Results from PubChem BioAssay AID652041 (Broad Institute, 2013).

Tested on: P. falciparum HB3 in RBCs, SYBR Green DNA fluorescence
Experiment: growth inhibition of P. falciparum HB3, dose response, HB3 strain, red blood cells, SYBR Green, cherry-picked (AID 652041);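 also: parasites exposed to compound for 72 hours before the DNA read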

Point of comparison: `O=C(NOC(=O)c1ccccc1)c1ccccc1`, AC35 20.1 µM. Against it:
- O/N=C/c1ccccc1OCc1ccc(Cl)cc1 — 1.7-fold higher, 34.4 µM
- CCCCNc1c(-c2cccc(-c3ccc(OC)cc3)c2)nc2ccc(C)cn12 — 12-fold lower, 1.65 µM
- Oc1c(C(Nc2cccc(C(F)(F)F)c2)c2ccncc2)ccc2cccnc12 (configuration not stated) — 14-fold lower, 1.39 µM
- O=C(NCCC1=CCCCC1)c1c(O)nc2sccn2c1=O — within 1.5-fold, 16.2 µM
- Cc1nc(-c2ccccn2)nc(N(C)c2ccccc2)c1Cl — 3.3-fold lower, 6.1 µM
- CCn1c2ccc(C)cc2c2nc3cc(C(=O)O)ccc3nc21 — 1.8-fold higher, 37.1 µM
- O=C(Nc1nnc(SCc2ccc(F)cc2)s1)c1ccccn1 — 10-fold lower, 1.93 µM
- O=C(COc1ccc([N+](=O)[O-])cc1)Nc1nc(-c2ccccn2)cs1 — 3.2-fold lower, 6.38 µM
- Cc1c(C2(O)CCCCC2)[nH]c2ccc(C(F)(F)F)cc12 — within 1.5-fold, 17.3 µM
- Oc1ccc(N=Nc2ccc3c(c2)OCCO3)c2cccnc12 — 24-fold lower, 0.854 µM
- Cc1ccc(Sc2ccc(NC(=O)CCl)cc2)cc1C — 63-fold lower, 0.321 µM
- O=C(OCC(=O)C12CC3CC(CC(C3)C1)C2)c1ccc(O)cc1 — within 1.5-fold, 23.4 µM
- COC(=O)C1=NN(C(=O)c2cccc(Br)c2)C(O)(c2ccc(Cl)cc2)C1 (configuration not stated) — 1.5-fold higher, 31 µM
- Nc1nc(-c2ccc(Oc3ccccc3)cc2)cs1 — 1.5-fold higher, 30.3 µM
- O=C(/C(=N/N=C/c1ccc(O)c(O)c1O)c1ccccc1)c1ccccc1 — 5.4-fold lower, 3.7 µM
- OCCN(CCO)c1cc2c3ccccc3ccc2c2ccccc12 — 17-fold lower, 1.21 µM
- FC(F)(F)c1cccc(N2CCc3cn[nH]c32)c1 — within 1.5-fold, 28.4 µM
- O=C1c2ccccc2-n2c1nc1ccccc1c2=O — 330-fold lower, 0.0617 µM
- O=[N+]([O-])c1ccc2c(OCc3nnc(-c4ccccc4Br)o3)ncnc2c1 — within 1.5-fold, 21.8 µM
- COc1ccc(O)c(C(=O)CC(=O)c2ccccc2C)c1 — within 1.5-fold, 13.9 µM
- C=CCNc1nc(-c2ccccn2)nnc1-c1ccccc1 — 9.1-fold lower, 2.22 µM
- Cc1ccc(O)c(C2=NNC(c3ccc(Cl)cc3)C2)c1 (configuration not stated) — 5.6-fold lower, 3.59 µM
- O=C1Nc2c(Br)cccc2C1=O — 1.5-fold higher, 30.5 µM
- COc1cc(/C=N/O)cc(Br)c1OCc1cccc(Cl)c1 — within 1.5-fold, 28.1 µM
- CN(C)c1ccc(C=c2c3ccccc3n3c2c2c([n+]3C)CCCC2)cc1 — 88-fold lower, 0.228 µM
- COc1ccc(-c2oc3ccccc3c2C#Cc2cncn2C)cc1 — 23-fold lower, 0.87 µM
- O=C(N/N=C/c1cc(Cl)cc([N+](=O)[O-])c1O)c1ccccc1NS(=O)(=O)c1cccs1 — 2.1-fold higher, 41.5 µM
- Cc1ccc(NC(=S)c2nc3ccccc3[nH]2)c(C)c1 — 3.5-fold lower, 5.68 µM
- S=C(NCc1ccco1)Nc1ccc(Oc2ccc(Cl)cc2)cc1 — within 1.5-fold, 16.8 µM
- CCC(C)Sc1cccc(-c2nc3ccccn3c2NCc2ccccc2)c1 (configuration not stated) — 1.7-fold lower, 12.1 µM
- Cc1ccc(Nc2cc(C)nn2-c2nc(C)cc(C)n2)cc1 — 7.3-fold lower, 2.75 µM
- Oc1ccccc1-c1cc(-c2ccc3c(c2)OCCO3)n[nH]1 — 2-fold lower, 9.9 µM
- Cc1ccc(C(=O)C(SC(C)(C)C)n2cncn2)cc1 (configuration not stated) — 1.9-fold higher, 38.7 µM
- CN(c1ccccc1)c1nc(N2CCCC2)nc(-n2ccnc2)n1 — 1.8-fold lower, 11.1 µM
- Cc1csc(NC(=O)C(C)Oc2ccc(Cl)cc2C)n1 (configuration not stated) — within 1.5-fold, 23 µM
- COc1cccc(/C=N/Nc2ncnc3scc(-c4ccccc4)c23)c1O — 12-fold lower, 1.7 µM
- Cc1cc(/C=C2\SC(=S)N(C)C2=O)c(C)n1-c1ccc(O)cc1 — 2.1-fold lower, 9.39 µM
- O=C(Nc1nnc(-c2ccccc2)o1)c1ccc(Cl)cc1 — 1.9-fold lower, 10.7 µM
- CN(C)c1nc(-c2ccccn2)nnc1-c1ccccc1 — 7.9-fold lower, 2.54 µM
- C=CCNC(=S)N1CCC(Cc2ccccc2)CC1 — within 1.5-fold, 28 µM
- COc1cnc(-c2ccccn2)nc1Oc1ccc(C(C)(C)C)cc1 — 4.2-fold lower, 4.82 µM
- c1ccc(C(=NNc2nc3ccccc3s2)c2ccccn2)cc1 — 9.1-fold lower, 2.22 µM
- CC1=CC(C)(C)N(S(=O)(=O)c2ccc(C)cc2)c2ccc(C)cc21 — within 1.5-fold, 18.4 µM
- COc1ccc(Sc2nc(-c3ccccn3)ncc2OC)cc1 — 5.7-fold lower, 3.53 µM
- COc1cccc(/C=N/NC(=O)c2nc(-c3ccccc3)cc(-c3ccccc3)n2)c1O — 2.8-fold lower, 7.16 µM
- Cc1ccc2oc(-c3ccccc3)c(C(=O)O)c(=O)c2c1 — within 1.5-fold, 20.3 µM
- C[n+]1c2cc(N)ccc2cc2ccc(N)cc21 — 380-fold lower, 0.0524 µM
- COc1ccccc1C1CCN(C(=O)c2ccc(Cl)cc2)CC1 — within 1.5-fold, 28.6 µM
- O=C(N/N=C/c1ccc[nH]1)c1sc2ccccc2c1Cl — within 1.5-fold, 15.8 µM
- O=C(CN1CC[n+]2c(-c3cccs3)csc21)c1ccc(-c2ccccc2)cc1 — 14-fold lower, 1.46 µM
- C[C@@]12CCC3[C@@](CCC4[C@@]3(C)CCC[C@@]4(C)C(=O)NCc3ccccc3)(CC1=O)C2 (some centres not stated) — within 1.5-fold, 21.7 µM
- CCC(NC(=S)NCc1ccc(F)cc1)c1ccc(C(C)C)cc1 (configuration not stated) — 1.8-fold lower, 11.3 µM
- COc1ccccc1-c1sc2cc3c(cc2c1C#Cc1cncn1C)OCO3 — 6.8-fold lower, 2.96 µM
- CC(C)(C)C(=O)C(Oc1ccc(Cl)cc1)n1cncn1 (configuration not stated) — 1.8-fold higher, 36.1 µM
- Cn1ccc(=Nc2ccc(NC(=O)c3ccc(N=c4ccn(C)c5ccc([N+](=O)[O-])cc45)cc3)cc2)cc1 — lower, < 0.0235 µM
- Nc1cc2nc3ccccc3oc-2cc1=O — 20-fold lower, 1.01 µM
- Cc1cccc(N2CCN(C(=O)C3COc4ccccc4O3)CC2)c1C (configuration not stated) — 1.9-fold higher, 38.9 µM
- CC(C)N1CCN(c2ccc(OCC3COC(Cn4cncn4)(c4ccc(Cl)cc4Cl)O3)cc2)CC1 (configuration not stated) — 4.4-fold lower, 4.53 µM
- Cc1ccc(C)c(/C=C/C(=O)c2ccccc(=O)c2O)c1 — 2.4-fold lower, 8.27 µM
- CC/C(=N/NC(=O)c1ccccc1O)c1c(C)[nH]n(-c2ccccc2)c1=O — within 1.5-fold, 28.1 µM
- Cc1ccc(Sc2cc(C)nc(-c3ccccn3)n2)cc1 — 3.3-fold lower, 6.03 µM
- Cc1ccc(NC(=O)CN(C)C(=O)c2cccnc2Nc2cccc(C(F)(F)F)c2)cc1 — 1.9-fold lower, 10.5 µM
- CCCCC(CC)c1nnc(NC(=O)c2cccs2)s1 (configuration not stated) — 1.9-fold higher, 37.3 µM
- CCCn1c(=O)c(C(=O)NCc2ccc(OC)c(OC)c2)c(O)c2ccccc21 — within 1.5-fold, 21.8 µM
- NC(=Nc1nc(-c2ccccn2)cc2ccccc12)c1ccccn1 — 91-fold lower, 0.22 µM
- Oc1ccc(/C=N/Nc2ccc(C(F)(F)F)cn2)c(O)c1 — 3.1-fold lower, 6.46 µM
- O=Cc1cc(N=Nc2ccccc2Cl)ccc1O — 8.9-fold lower, 2.27 µM
- O=CC1=C(c2ccccc2)Oc2ccccc2O1 — 2.7-fold lower, 7.46 µM
- COc1ccc(-c2cc(C(=O)N3CCN(c4ccccc4F)CC3)c3ccccc3n2)c(OC)c1 — 3-fold lower, 6.74 µM
- CCCCc1ccc(-n2c(Cc3cccs3)n[nH]c2=S)cc1 — within 1.5-fold, 29.2 µM
- FC(F)(F)c1nc(SCc2ccc(Cl)cc2Cl)n[nH]1 — 2-fold higher, 40 µM
- O/N=C(\c1ccc(Cl)cc1)c1cc2ccccc2o1 — within 1.5-fold, 16.4 µM
- S=C(Nc1ccc(Oc2ccccc2)cc1)NC1CCCCCC1 — 5-fold lower, 4.03 µM
- Cc1nc2ccc(C(C(F)(F)F)(C(F)(F)F)C(F)(F)F)cc2[nH]1 — 1.8-fold lower, 11.2 µM
- Cc1ccc(S(=O)(=O)Nc2ccc(O)c3cccnc23)cc1 — 3.2-fold lower, 6.27 µM
- COC(=O)C1=C(C)NC(C)=C(C(=O)OCC(C)C)C1c1ccccc1[N+](=O)[O-] (configuration not stated) — 4.3-fold lower, 4.63 µM
- O=S1OC(c2ccccc2)c2cc(Cl)ccc21 (configuration not stated) — within 1.5-fold, 16.8 µM
- O=C(c1ccc(-c2ccccc2)cc1)C1CCCN(C(=O)c2cncs2)C1 (configuration not stated) — 2.7-fold lower, 7.38 µM
- CN(C)c1nc(SCc2ccc(Cl)cc2)nc2c1CCCC2 — 1.7-fold higher, 33.5 µM
- C=C(C)COc1ccc(-c2[nH]ncc2-c2ccccc2)c(O)c1 — 11-fold lower, 1.89 µM
- COc1cccc(CC(=O)Nc2ccc3nc(C)sc3c2)c1 — 2.2-fold higher, 43.9 µM
- CCCC(C)Sc1nc2c([nH]1)c(=S)n(C)c(=O)n2C (configuration not stated) — 3-fold lower, 6.67 µM
- Cc1c(C(=O)O)cccc1-c1ccc(/C=N/Nc2ccc(Br)cc2)o1 — within 1.5-fold, 21.3 µM
- CCn1c(CNc2ccc(Cl)cc2)nnc1SCc1ccc(Cl)cc1 — 1.9-fold higher, 38.6 µM
- CC(C)C(=O)NC(c1cccc([N+](=O)[O-])c1)c1ccc2cccnc2c1O (configuration not stated) — 24-fold lower, 0.826 µM
- O=C(CSc1ccc(-c2ccccn2)nn1)NCc1ccc(F)cc1 — 1.9-fold higher, 37.5 µM
